{"source": "patent US10098842B2", "about": "“Method and a device for producing nanoparticles” (Nanoform Finland Oy, priority 2014, dated 2018)", "assay": "Drug release (dissolution) tests in phosphate buffer pH 7.2", "format": "physicochemical", "settings": "gelatin capsule, phosphate buffer pH 7.2, 37.0° C., 400 rpm", "description": "Drug release tests for piroxicam nanoparticles and bulk (reference) piroxicam were done to investigate the effect of particle size on the dissolution rate. The tests were conducted in glass vials under heating (37.0±0.5° C.) and stirring (400 rpm) (H+P Labortechnik AG, Multitherm, Germany). Samples were placed in a gelatin capsule and anchored with an iron wire to prevent the capsule from surfacing. The capsule was then placed in glass vials containing phosphate buffer (50 mL; pH 7.2). Aliquots (1 mL) were taken at the time points ranging from 1 min to 48 hours. Drug release tests were conducted in triplicate. Samples were analyzed with high performance liquid chromatography (HPLC Thermo System Products, Agilent 1200 Infinity Series, Agilent Technologies, Germany) using a Discovery® C18 (Supelco Analytical, U.S.) column with guard column and a flow rate of 1 mL/min. The mobile phase was 60:40 (v/v) acetonitrile and 0.05% trifluoroacetic acid. The UV detection of piroxicam was set to 333 nm with a retention time of 2.9 min and total run time of 4 min at 30° C. A standard curve for […] quantification was made from piroxicam concentrations of 0.1-25 μg/mL (R^2=0.999).", "data": [{"smiles": "CN1C(C(=O)Nc2ccccn2)=C(O)c2ccccc2S1(=O)=O", "note": "[bulk piroxicam, 4-hydroxy-2-methyl-N-(2-pyridinyl)-2H-1,2-benzothiazine-3-carboxamide 1,1-dioxide]", "values": [{"measurement": "dissolution rate compared with the literature (Lai et al. 2011)", "value": "agreed and exceeded that reported in the literature"}]}]}
